{"source": "ChEMBL document CHEMBL4368907", "about": "(J Med Chem, 2019)", "key": {"[1]": {"molecular_target": "T1, Cholecystokinin receptor type A (Homo sapiens, UniProt P32238)", "T1 sequence (P32238 whole entry)": "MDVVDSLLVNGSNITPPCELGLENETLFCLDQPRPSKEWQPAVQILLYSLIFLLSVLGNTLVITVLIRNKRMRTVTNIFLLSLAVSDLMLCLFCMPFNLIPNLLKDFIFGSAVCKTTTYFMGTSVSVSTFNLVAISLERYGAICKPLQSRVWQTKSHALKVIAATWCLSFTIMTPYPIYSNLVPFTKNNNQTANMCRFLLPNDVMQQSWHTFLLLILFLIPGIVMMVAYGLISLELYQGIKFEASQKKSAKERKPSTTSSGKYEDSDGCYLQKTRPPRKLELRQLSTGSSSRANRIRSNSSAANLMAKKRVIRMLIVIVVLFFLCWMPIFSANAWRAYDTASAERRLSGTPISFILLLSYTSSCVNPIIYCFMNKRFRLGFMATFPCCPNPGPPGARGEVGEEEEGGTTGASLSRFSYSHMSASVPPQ", "assay": "Displacement of [125I]-CCK-8 from human CCK1R expressed in human 1321N1 cell membranes after 2 hrs by SPA assay"}, "[2]": {"molecular_target": "T2, Gastrin/cholecystokinin type B receptor (Homo sapiens, UniProt P32239)", "T2 sequence (P32239 whole entry)": "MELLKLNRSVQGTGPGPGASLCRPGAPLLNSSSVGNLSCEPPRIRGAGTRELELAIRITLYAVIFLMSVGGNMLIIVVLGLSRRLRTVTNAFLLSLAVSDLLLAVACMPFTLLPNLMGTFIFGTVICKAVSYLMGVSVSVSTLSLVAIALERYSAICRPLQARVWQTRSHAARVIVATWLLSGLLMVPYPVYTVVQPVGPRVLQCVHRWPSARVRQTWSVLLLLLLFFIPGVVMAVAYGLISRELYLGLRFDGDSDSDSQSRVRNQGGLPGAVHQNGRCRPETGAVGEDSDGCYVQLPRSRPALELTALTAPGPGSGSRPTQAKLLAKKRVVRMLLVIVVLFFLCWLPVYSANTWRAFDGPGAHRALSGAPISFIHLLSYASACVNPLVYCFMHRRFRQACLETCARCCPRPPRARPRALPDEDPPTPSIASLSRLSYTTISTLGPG", "assay": "Displacement of [125I]-CCK-8 from human CCK2R expressed in human 1321N1 cell membranes after 2 hrs by SPA assay"}, "[3]": {"molecular_target": "T1, Cholecystokinin receptor type A", "assay": "Agonist activity at human CCK1R expressed in human 1321N1 cells assessed as IP1 accumulation after 1 hr by HTRF assay", "format": "functional, cell-based"}, "[4]": {"molecular_target": "T2, Gastrin/cholecystokinin type B receptor", "assay": "Agonist activity at human CCK2R expressed in human 1321N1 cells assessed as IP1 accumulation after 1 hr by HTRF assay", "format": "functional, cell-based"}, "[5]": {"assay": "Terminal half life in Ellegaard Gottingen minipig at 5 nmol/kg, iv by LC-MS/MS analysis", "format": "ADME, organism-based, Sus scrofa", "details": "pig, in vivo, read-out: beta t1/2 (converted); call rule not given here"}, "[6]": {"assay": "Plasma concentration in lean Landrace Yorkshire Duroc pig at 30 nmol/kg, sc measured after 96 hrs post dose", "format": "ADME, organism-based, Sus scrofa"}, "[7]": {"assay": "Toxicity in lean Landrace Yorkshire Duroc pig at 30 nmol/kg, sc measured up to 96 hrs post dose", "format": "organism-based, Sus scrofa", "details": "in vivo"}, "[8]": {"assay": "Drug level in Ellegaard Gottingen minipig plasma treated with C18d-gammaGlu-(OEG)2-Asp-Phe(4sm)-Nle-Gly-Trp-Nle-DMeAspMePhe-NH2 at 5 nmol/kg, iv administered as single dose by LC-MS/MS analysis", "format": "ADME, organism-based, Sus scrofa", "details": "pig, in vivo"}, "[9]": {"test_system": "Sus scrofa", "assay": "Anti-obesity activity in lean Landrace Yorkshire Duroc pig assessed as food intake at 30 nmol/kg, sc measured up to 24 hrs post dose (reference value: 1.8 to 2.1 kg)", "format": "functional"}, "[10]": {"test_system": "Sus scrofa", "assay": "Anti-obesity activity in lean Landrace Yorkshire Duroc pig assessed as food intake at 30 nmol/kg, sc measured at 24 to 48 hrs post dose (reference value: 1.8 to 2.1 kg)", "format": "functional"}, "[11]": {"test_system": "Sus scrofa", "assay": "Anti-obesity activity in lean Landrace Yorkshire Duroc pig assessed as food intake at 30 nmol/kg, sc measured at 48 to 72 hrs post dose (reference value: 1.8 to 2.1 kg)", "format": "functional"}, "[12]": {"test_system": "Sus scrofa", "assay": "Anti-obesity activity in lean Landrace Yorkshire Duroc pig assessed as food intake at 30 nmol/kg, sc measured at 72 to 96 hrs post dose (reference value: 1.8 to 2.1 kg)", "format": "functional"}}, "note": "Numbered stars: 1 amine (or outer) side, 2 acyl side, 3 side chain; on linkers, the order of the positions; unused ones are H or OH. Square brackets hold non-standard residues; d marks the D form. Side chains are listed from the residue outwards. Peptide text beside a SMILES is read from it. * marks the point of attachment. Phe(4-CH2SO3H) = N[C@@H](Cc1ccc(CS(=O)(=O)O)cc1)C(=O)O; sY = N[C@@H](Cc1ccc(OS(=O)(=O)O)cc1)C(=O)O; C18 diacid = O=C(O)CCCCCCCCCCCCCCCCC(=O)*; γGlu = O=C(O)[C@H](CCC(=O)[*:2])N[*:1]; NMeF = CN[C@@H](Cc1ccccc1)C(=O)O; NMeD = CN[C@@H](CC(=O)O)C(=O)O; dNMeD = CN[C@H](CC(=O)O)C(=O)O; Nle = CCCC[C@H](N)C(=O)O; X1 = O=C(Cc1ccc(O)cc1)*; AEEA = NCCOCCOCC(=O)O"}
{"smiles": "CCCC[C@H](NC(=O)[C@H](Cc1c[nH]c2ccccc12)NC(=O)CNC(=O)[C@H](CC(C)C)NC(=O)[C@H](Cc1ccc(O)cc1)NC(=O)[C@H](CC(=O)O)NC(=O)COCCOCCNC(=O)COCCOCCNC(=O)CC[C@H](NC(=O)CCCCCCCCCCCCCCCCC(=O)O)C(=O)O)C(=O)N(C)[C@@H](CC(=O)O)C(=O)N(C)[C@@H](Cc1ccccc1)C(N)=O", "values": [{"measurement": "pIC50", "setting": "[1]", "result": 8.99}, {"measurement": "pIC50", "setting": "[2]", "result": 5.31}, {"measurement": "pEC50", "setting": "[3]", "result": 9.81}, {"measurement": "pEC50", "setting": "[4]", "result": "< 6"}, {"measurement": "half-life", "setting": "[5]", "result": 45, "unit": "h"}, {"measurement": "concentration at 96 h", "setting": "[6]", "result": 8.5, "unit": "nM"}, {"measurement": "Activity", "setting": "[7]", "result": "Non-Toxic"}]}
{"smiles": "CCCC[C@H](NC(=O)[C@H](Cc1c[nH]c2ccccc12)NC(=O)CNC(=O)[C@H](CCCCNC(=O)COCCOCCNC(=O)COCCOCCNC(=O)CC[C@H](NC(=O)CCCCCCCCCCCCCCCCC(=O)O)C(=O)O)NC(=O)Cc1ccc(O)cc1)C(=O)N(C)[C@@H](CC(=O)O)C(=O)N(C)[C@@H](Cc1ccccc1)C(N)=O", "note": "(X1-K([AEEA-AEEA-γGlu-C18 diacid])GW[Nle][NMeD][NMeF]-NH2) [listing 1 of 2 here]", "values": [{"measurement": "pIC50", "setting": "[1]", "result": 9.28}, {"measurement": "pIC50", "setting": "[2]", "result": 5.43}, {"measurement": "pEC50", "setting": "[3]", "result": 9.8}, {"measurement": "pEC50", "setting": "[4]", "result": "< 6"}, {"measurement": "half-life", "setting": "[5]", "result": 7.1, "unit": "h"}, {"measurement": "concentration at 96 h", "setting": "[6]", "result": "< 0.9", "unit": "nM"}, {"measurement": "Activity", "setting": "[7]", "result": "Non-Toxic"}]}
{"smiles": "CCCC[C@H](NC(=O)[C@H](Cc1ccc(CS(=O)(=O)O)cc1)NC(=O)[C@H](CC(=O)O)NC(=O)COCCOCCNC(=O)COCCOCCNC(=O)CC[C@H](NC(=O)CCCCCCCCCCCCCCCCC(=O)O)C(=O)O)C(=O)NCC(=O)N[C@@H](Cc1c[nH]c2ccccc12)C(=O)N[C@@H](CCCC)C(=O)N(C)[C@@H](CC(=O)O)C(=O)O", "note": "({C18 diacid-γGlu-AEEA-AEEA}-D[Phe(4-CH2SO3H)][Nle]GW[Nle][NMeD]-OH)", "values": [{"measurement": "Drug uptake", "setting": "[8]", "result": "Active"}]}
{"smiles": "O=C(O)CCCCCCCCCCCCCCCCC(=O)N[C@@H](CCC(=O)NCCOCCOCC(=O)NCCOCCOCC(=O)N[C@@H](CC(=O)O)C(=O)N[C@@H](Cc1ccc(CS(=O)(=O)O)cc1)C(=O)O)C(=O)O", "values": [{"measurement": "Drug uptake", "setting": "[8]", "result": "Active"}]}
{"smiles": "CC(C)C[C@H](NC(=O)[C@H](Cc1ccc(OS(=O)(=O)O)cc1)NC(=O)[C@H](CC(=O)O)NC(=O)COCCOCCNC(=O)COCCOCCNC(=O)CC[C@H](NC(=O)CCCCCCCCCCCCCCCCC(=O)O)C(=O)O)C(=O)NCC(=O)N[C@@H](Cc1c[nH]c2ccccc12)C(=O)N[C@@H](CCC(N)=O)C(=O)N(C)[C@H](CC(=O)O)C(=O)N(C)[C@@H](Cc1ccccc1)C(N)=O", "note": "({C18 diacid-γGlu-AEEA-AEEA}-D[sY]LGWQ[dNMeD][NMeF]-NH2)", "values": [{"measurement": "EC50", "setting": "[3]", "result": 0.135, "unit": "nM"}, {"measurement": "Activity", "setting": "[9]", "result": 1.4, "unit": "kg"}, {"measurement": "Activity", "setting": "[10]", "result": 1.3, "unit": "kg"}, {"measurement": "Activity", "setting": "[11]", "result": 1.8, "unit": "kg"}, {"measurement": "Activity", "setting": "[12]", "result": 1.8, "unit": "kg"}, {"measurement": "concentration at 96 h", "setting": "[6]", "result": 91.2, "unit": "nM"}, {"measurement": "Activity", "setting": "[7]", "result": "Non-Toxic"}]}
{"smiles": "CCCC[C@H](NC(=O)[C@H](Cc1c[nH]c2ccccc12)NC(=O)CNC(=O)[C@H](CCCCNC(=O)COCCOCCNC(=O)COCCOCCNC(=O)CC[C@H](NC(=O)CCCCCCCCCCCCCCCCC(=O)O)C(=O)O)NC(=O)Cc1ccc(O)cc1)C(=O)N(C)[C@@H](CC(=O)O)C(=O)N(C)[C@@H](Cc1ccccc1)C(N)=O", "note": "(X1-K([AEEA-AEEA-γGlu-C18 diacid])GW[Nle][NMeD][NMeF]-NH2) [listing 2 of 2 here]", "values": [{"measurement": "Activity", "setting": "[9]", "result": 2.1, "unit": "kg"}, {"measurement": "Activity", "setting": "[10]", "result": 2.2, "unit": "kg"}, {"measurement": "Activity", "setting": "[11]", "result": 2.1, "unit": "kg"}, {"measurement": "Activity", "setting": "[12]", "result": 2.4, "unit": "kg"}]}
